One may read the IC50 as the midpoint of a concentration-inhibition curve. A higher IC50 goes with a need for much substance.

The target in the assay is T1, HCV NS3-4A serine protease (full-length NS3-4A protein, genotype 1a, strain HCV-1) (Hepatitis C virus genotype 1a, UniProt P26664).
T1 construct: using the full-length NS3-4A protein (genotype 1a, strain HCV-1)
T1 sequence (P26664 1658-1711): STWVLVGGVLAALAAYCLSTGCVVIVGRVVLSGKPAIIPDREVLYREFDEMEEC
T1 sequence (P26664 1027-1657): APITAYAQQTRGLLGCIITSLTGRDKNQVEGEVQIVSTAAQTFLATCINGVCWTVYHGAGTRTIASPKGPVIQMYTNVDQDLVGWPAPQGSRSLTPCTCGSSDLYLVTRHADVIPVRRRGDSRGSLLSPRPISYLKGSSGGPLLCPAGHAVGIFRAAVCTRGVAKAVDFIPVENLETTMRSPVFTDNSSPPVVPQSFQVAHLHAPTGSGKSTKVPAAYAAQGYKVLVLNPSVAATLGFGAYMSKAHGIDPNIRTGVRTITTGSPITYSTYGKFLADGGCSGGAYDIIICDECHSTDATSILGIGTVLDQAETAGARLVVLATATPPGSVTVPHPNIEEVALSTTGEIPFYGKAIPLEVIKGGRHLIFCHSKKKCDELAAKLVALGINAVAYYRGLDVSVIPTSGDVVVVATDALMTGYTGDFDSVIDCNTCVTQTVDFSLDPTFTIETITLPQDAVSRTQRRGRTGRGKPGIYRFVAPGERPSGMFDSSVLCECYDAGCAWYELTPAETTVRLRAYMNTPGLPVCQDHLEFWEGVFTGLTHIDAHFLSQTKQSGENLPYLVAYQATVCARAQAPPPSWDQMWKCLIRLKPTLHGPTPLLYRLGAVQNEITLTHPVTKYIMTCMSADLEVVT
Briefly: HCV NS3-4A protease assay. It counts as biochemical. The following applies: Protease IC50. The protocol: The inhibitory activity of certain compounds of Table A against HCV NS3-4A serine protease is determined in a homogenous assay using the full-length NS3-4A protein (genotype 1a, strain HCV-1) and a commercially available internally-quenched fluorogenic peptide substrate as described by Taliani, M., et al. 1996 Anal. Biochem. 240:60-67, which is incorporated by reference in its entirety.
The compound `C=C[C@@H]1C[C@]1(NC(=O)[C@@H]1C[C@@]2(CN1C(=O)[C@@H](NC(=O)C(NC(=O)c1nccc3ccccc13)C1CCCCC1)C(C)(C)C)C(C)(C)C21CCC1)C(=O)NS(=O)(=O)C1CC1` (stereo partly drawn) [Compound 127, (5R,8S)-7-[(2S)-2-({cyclohexyl[(isoquinolin-1-ylcarbonyl)amino]acetyl}amino)-3,3-dimethylbutanoyl]-N-{(1R,2S)-1-[(cyclopropylsulfonyl)carba-moyl]-2-vinylcyclopropyl}-10,10-dimethyl-7-azadispiro[3.0.4.1]decane-8-carboxamide] yielded a 50% inhibitory concentration (IC50) of 8 nM.
The value for `C=C[C@H]1C[C@@]1(NC(=O)[C@@H]1C[C@@]2(CN1C(=O)[C@@H](NC(=O)[C@@H](NC(=O)c1ccccc1N(C)C)C(C)(C)C)C(C)(C)C)C(C)(C)C21CCC1)C(=O)NS(=O)(=O)C1CC1` [Compound 130, (5R,8S)-N-{(1S,2R)-1-[(cyclopropylsulfonyl)carba-moyl]-2-vinylcyclopropyl}-7-[(2S)-2-{[(2S)-2-{[2-(dimethylamino)benzoyl]amino}-3,3-dimethylbutanoyl]amino}-3,3-dimethylbutanoyl]-10,10-dimethyl-7-azadispiro[3.0.4.1]decane-8-carboxamide] was 5.5 nM.
For the compound `C=C[C@@H]1C[C@]1(NC(=O)[C@@H]1C[C@@]2(CN1C(=O)[C@@H](NC(=O)[C@@H](NC(=O)[C@@H]1CCN1C(C)C)C(C)(C)C)C(C)(C)C)C(C)(C)C21CCC1)C(=O)NS(=O)(=O)C1CC1` [Compound 131, (5R,8S)-N-{(1R,2S)-1-[(cyclopropylsulfonyl)carba-moyl]-2-vinylcyclopropyl}-7-[(2S)-2-{[(2S)-2-({[(2S)-1-isopropylazetidin-2-yl]carbonyl}amino)-3,3-dimethylbutanoyl]amino}-3,3-dimethylbutanoyl]-10,10-dimethyl-7-azadispiro[3.0.4.1]decane-8-carboxamide], the IC50 came out at 0.8 nM.
The same measure for `C=C1CC(NC(=O)[C@@H]2C[C@@]3(CN2C(=O)[C@@H](NC(=O)[C@@H](NC(=O)[C@@H]2CCCCN2C(C)C)C(C)(C)C)C(C)(C)C)C(C)(C)C32CCC2)(C(=O)NS(=O)(=O)C2CC2)C1` [Compound 132, (5R,8S)-N-{1-[(cyclopropylsulfonyl)carba-moyl]-3-methylenecyclobutyl}-7-[(2S)-2-{[(2S)-2-({[(2S)-1-isopropylpiperidin-2-yl]carbonyl}amino)-3,3-dimethylbutanoyl]amino}-3,3-dimethylbutanoyl]-10,10-dimethyl-7-azadispiro[3.0.4.1]decane-8-carboxamide]: 1300 nM.
Compound `CC(C)N1CCCC[C@H]1C(=O)N[C@H](C(=O)N[C@H](C(=O)N1C[C@]2(C[C@H]1C(=O)NC1(C(=O)NS(=O)(=O)C3CC3)CCC1)C(C)(C)C21CCC1)C(C)(C)C)C(C)(C)C` [Compound 133, (5R,8S)-N-{1-[(cyclopropylsulfonyl)carba-moyl]cyclobutyl}-7-[(2S)-2-{[(2S)-2-({[(2S)-1-isopropylpiperidin-2-yl]carbonyl}amino)-3,3-dimethylbutanoyl]amino}-3,3-dimethylbutanoyl]-10,10-dimethyl-7-azadispiro[3.0.4.1]decane-8-carboxamide] returned an IC50 of 450 nM.
Compound `CC[C@@H]1C[C@]1(NC(=O)[C@@H]1C[C@@]2(CN1C(=O)[C@@H](NC(=O)[C@@H](NC(=O)c1cnccn1)C(C)(C)C)C(C)(C)C)C(C)(C)C21CCC1)C(=O)NS(=O)(=O)C1CC1` [Compound 134, (5R,8S)-N-{(1R,2R)-1-[(cyclopropylsulfonyl)carba-moyl]-2-ethylcyclopropyl}-7-[(2S)-2-({(2S)-3,3-dimethyl-2-[(pyrazin-2-ylcarbonyl)amino]butanoyl}amino)-3,3-dimethylbutanoyl]-10,10-dimethyl-7-azadispiro[3.0.4.1]decane-8-carboxamide] returned a 50% inhibitory concentration (IC50) of 40 nM.
Take `C=C[C@@H]1C[C@]1(NC(=O)[C@@H]1C[C@@]2(CN1C(=O)[C@@H](NC(=O)[C@@H](NC(=O)[C@H]1CCN1C(C)C)C(C)(C)C)C(C)(C)C)C(C)(C)C21CCC1)C(=O)NS(=O)(=O)C1CC1` [Compound 135, (5R,8S)-N-{(1R,2S)-1-[(cyclopropylsulfonyl)carba-moyl]-2-vinylcyclopropyl}-7-[(2S)-2-{[(2S)-2-({[(2R)-1-isopropylazetidin-2-yl]carbonyl}amino)-3,3-dimethylbutanoyl]amino}-3,3-dimethylbutanoyl]-10,10-dimethyl-7-azadispiro[3.0.4.1]decane-8-carboxamide]: the IC50 was determined as 15 nM.
On to `C=C[C@@H]1C[C@]1(NC(=O)[C@@H]1C[C@@]2(CN1C(=O)[C@@H](NC(=O)[C@@H](NC(=O)c1c(C)n[nH]c1C)C(C)(C)C)C(C)(C)C)C(C)(C)C21CCC1)C(=O)NS(=O)(=O)C1CC1` [Compound 136, (5R,8S)-N-{(1R,2S)-1-[(cyclopropylsulfonyl)carba-moyl]-2-vinylcyclopropyl}-7-[(2S)-2-{[(2S)-2-{[(3,5-dimethyl-1H-pyrazol-4-yl)carbonyl]amino}-3,3-dimethylbutanoyl]amino}-3,3-dimethylbutanoyl]-10,10-dimethyl-7-azadispiro[3.0.4.1]decane-8-carboxamide], for which half-maximal inhibition (IC50) was put at 20 nM.
Turning to `C=C[C@@H]1C[C@]1(NC(=O)[C@@H]1C[C@@]2(CN1C(=O)[C@@H](NC(=O)[C@@H](NC(=O)c1c(C)nn(C)c1C)C(C)(C)C)C(C)(C)C)C(C)(C)C21CCC1)C(=O)NS(=O)(=O)C1CC1` [Compound 137, (5R,8S)-N-{(1R,2S)-1-[(cyclopropylsulfonyl)carba-moyl]-2-vinylcyclopropyl}-7-[(2S)-2-{[(2S)-3,3-dimethyl-2-{[(1,3,5-trimethyl-1H-pyrazol-4-yl)carbonyl]amino}butanoyl]amino}-3,3-dimethylbutanoyl]-10,10-dimethyl-7-azadispiro[3.0.4.1]decane-8-carboxamide], the concentration for half-maximal inhibition (IC50) amounted to 30 nM.
Turning to `C=C[C@@H]1C[C@]1(NC(=O)[C@@H]1C[C@@]2(CN1C(=O)[C@@H](NC(=O)[C@@H](NC(=O)c1cc(C(C)(C)C)n[nH]1)C(C)(C)C)C(C)(C)C)C(C)(C)C21CCC1)C(=O)NS(=O)(=O)C1CC1` [Compound 138, (5R,8S)-7-[(2S)-2-{[(2S)-2-{[(3-tert-butyl-1H-pyrazol-5-yl)carbonyl]amino}-3,3-dimethylbutanoyl]amino}-3,3-dimethylbutanoyl]-N-{(1R,2S)-1-[(cyclopropylsulfonyl)carba-moyl]-2-vinylcyclopropyl}-10,10-dimethyl-7-azadispiro[3.0.4.1]decane-8-carboxamide], the IC50 came to 5.5 nM.
The compound `C=C[C@@H]1C[C@]1(NC(=O)[C@@H]1C[C@@]2(CN1C(=O)[C@@H](NC(=O)[C@@H](NC(=O)C1CN(C(C)C)C1)C(C)(C)C)C(C)(C)C)C(C)(C)C21CCC1)C(=O)NS(=O)(=O)C1CC1` [Compound 139, (5R,8S)-N-{(1R,2S)-1-[(cyclopropylsulfonyl)carba-moyl]-2-vinylcyclopropyl}-7-[(2S)-2-{[(2S)-2-{[(1-isopropylazetidin-3-yl)carbonyl]amino}-3,3-dimethylbutanoyl]amino}-3,3-dimethylbutanoyl]-10,10-dimethyl-7-azadispiro[3.0.4.1]decane-8-carboxamide] registered an IC50 of 15 nM.

The values above are taken from patent publication US20110182850A1, “ORGANIC COMPOUNDS AND THEIR USES” (priority 2009, published 2011).
